Relative tumor volume and Relative body weight data for two molecules are collected here from patent US20090162313A1, “High-Molecular Weight Conjugate of Podophyllotoxins” (priority 2006, published 2009).

For data set [1], the system named is Mouse colon cancer, Colon 26. The experiment in a line: Antitumor effect of compound 1, subcutaneously transplanted tumor, relative tumor volume. Type of data set: in vivo. The settings on record: 90 mg/kg once i.v., female CDF1 mice. As for the experimental part: (§1) Mouse colon cancer, Colon 26, maintained by serial subcutaneous subculture in mice, was minced into about 2-mm square fragments, and the fragments were subcutaneously transplanted on the dorsal part of female CDF1 mice with a trocar. […] The control group means a group to which the drug was not administered. Compound 1 was dissolved in a 5% glucose solution for injection and used. As for […] injection (manufactured by Nippon Kayaku Co., Ltd.) was diluted with a 5% glucose solution for injection and used. After the administration, the major axis (L mm) and the minor axis (W mm) of the tumor were measured using a caliper, and the tumor volume was calculated by the formula: (L×W^2)/2. […] The changes of the body weight during this period of time is also shown in Table 1 as the relative body weight based on the body weight on the day of administration.

Data set [2] can be described thus: Relative body weight of tumor-bearing mice, Test Example 3. Type of data set: in vivo, mouse. The settings on record: 90 mg/kg once i.v., female CDF1 mice. As for the experimental part:
as §1

The subject of data set [3] is Mouse colon cancer, Colon 26. The experiment in a line: Antitumor action of compounds 2 and 3, subcutaneously transplanted tumor, relative tumor volume. Type of data set: in vivo. The settings on record: 15 mg/kg i.v. for 5 consecutive days (total 75 mg/kg), female CDF1 mice. As for the experimental part:
(§2) Mouse colon cancer, Colon 26, maintained by serial subcutaneous subculture in mice, was minced into about 2 mm-square fragments, and the fragments were transplanted subcutaneously on the dorsal part of female CDF1 mice with a trocar. […] The control group means a group to which the drug was not administered. POD, purchased from Sigma-Aldrich Company, was diluted with dimethylsulfoxide and a 5% glucose solution for injection and administered for 5 consecutive days from the administration initiation day. After the administration, the major axis (L mm) and the minor axis (W mm) of the tumor were measured using a caliper, and the tumor volume was calculated by the formula: (L×W^2)/2. […] The changes of the body weight during this period of time is also shown in Table 2 as the relative body weight based on the body weight on the day of administration.

Data set [4] is described as follows: Relative body weight of tumor-bearing mice, Test Example 4. The data set is classed as in vivo, mouse. The settings on record: 15 mg/kg i.v. for 5 consecutive days (total 75 mg/kg), female CDF1 mice. As for the experimental part: as §2
The mark [5] stands for this setting: day 0 after administration initiation day.
[6] abbreviates: day 3 after administration initiation day.
[7] abbreviates: day 5 after administration initiation day.
[8] abbreviates: day 8 after administration initiation day.

Consider `COc1cc([C@@H]2c3cc4c(cc3[C@@H](O[C@@H]3O[C@@H]5CO[C@@H](C)O[C@H]5[C@H](O)[C@H]3O)[C@H]3COC(=O)[C@H]23)OCO4)cc(OC)c1O` [ETP, etoposide], for which the Relative tumor volume in data set [1] (day 0 after administration) came out at 1.00; in data set [1] (day 4 after administration) it was 1.17; in data set [1] (day 8 after administration), 3.79. In addition, the Relative body weight came out at 1.00 in data set [2] (day 0 after administration), 0.87 in data set [2] (day 4 after administration) and 0.97 in data set [2] (day 8 after administration).
On to `COc1cc([C@@H]2c3cc4c(cc3[C@H](O)[C@H]3COC(=O)[C@H]23)OCO4)cc(OC)c1OC` [POD, podophyllotoxin], for which the Relative tumor volume in data set [3] (setting [5]) was found to be 1.00; in data set [3] (setting [6]), 1.58; in data set [3] (setting [7]), 1.79; in data set [3] (setting [8]) it was 6.08. Further, the Relative body weight came out at 1.00 in data set [4] (setting [5]), 1.01 in data set [4] (setting [6]), 0.96 in data set [4] (setting [7]) and 0.98 in data set [4] (setting [8]).
